Measurements as given in US20200290950A1, “ALKAMIDE COMPOUNDS AND USES THEREOF” (NORTH CAROLINA STATE UNIVERSITY, priority 2017, published 2020).

Experiments:
TRPV1 = molecular target: T1, TRPV1 (Mus musculus, UniProt Q704Y3); test: Calcium response of DRG neurons to capsaicin; format: cell-based; settings: cultured DRG neurons, fluorescence microscopy
T1 construct: The receptors TRPA1 and TRPV1 are expressed on neurons; from tissue; host or cells: primary dorsal root ganglion neurons from mice
T1 sequence (Q704Y3 whole entry): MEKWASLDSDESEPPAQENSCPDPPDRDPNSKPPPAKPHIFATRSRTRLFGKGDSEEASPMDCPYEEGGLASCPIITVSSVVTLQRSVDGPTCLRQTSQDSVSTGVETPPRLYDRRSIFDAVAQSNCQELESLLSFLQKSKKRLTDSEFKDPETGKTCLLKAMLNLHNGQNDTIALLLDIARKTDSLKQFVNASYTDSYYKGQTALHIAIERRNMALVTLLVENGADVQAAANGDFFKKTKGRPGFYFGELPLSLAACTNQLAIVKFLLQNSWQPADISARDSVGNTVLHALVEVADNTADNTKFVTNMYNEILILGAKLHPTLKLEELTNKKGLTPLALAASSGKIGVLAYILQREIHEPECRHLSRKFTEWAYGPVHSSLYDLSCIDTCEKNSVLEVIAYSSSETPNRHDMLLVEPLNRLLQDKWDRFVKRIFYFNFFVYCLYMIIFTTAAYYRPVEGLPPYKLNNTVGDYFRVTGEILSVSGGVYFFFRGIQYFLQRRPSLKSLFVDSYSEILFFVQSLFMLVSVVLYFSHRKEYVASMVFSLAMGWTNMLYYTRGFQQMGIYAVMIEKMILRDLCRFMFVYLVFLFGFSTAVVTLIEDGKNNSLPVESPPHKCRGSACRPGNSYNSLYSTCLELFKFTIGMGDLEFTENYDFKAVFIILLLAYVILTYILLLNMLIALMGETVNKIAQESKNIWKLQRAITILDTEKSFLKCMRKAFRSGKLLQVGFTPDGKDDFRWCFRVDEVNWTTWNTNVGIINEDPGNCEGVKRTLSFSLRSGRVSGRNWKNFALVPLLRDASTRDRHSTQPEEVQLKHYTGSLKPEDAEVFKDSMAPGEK
From the text: FIG. 11. Calcium response from DRG sensory neurons to alkamide of transient receptors. Mustard a TRPA1-receptor agonist activates DRG neurons in gray (A) and capsaicin, an agonist for TRPV1-receptors in the DRG neurons in red (B). Ligand A15 inhibits both TRPA1 and TRPV1 receptors activation in orange; however, 85Y a synthetic ligand only reduces the inhibition of TRPA1 but not TRPV1 receptors in blue. Total number of neurons (n)=135-145; p≤0.05.
Several different model systems were utilized for these experiments. In one model, dorsal root ganglia were obtained from mice and the neurons cultured in vitro. The neurons were then stimulated in the presence/absence of A15 and YM8-85 and the calcium responses monitored by fluorescence microscopy. In the second model, the alkamides were applied to mouse skin in mineral oil. The reactions of these mice to heat, cold, and tactile stimulation was then compared with mice that had not received treatment with A15. […] Alkamides were applied to sensitized animals and then ear swelling and bouts of scratching were monitored.
In vitro DRG neuron responses. […] Neurons were stimulated with mustard (allyl isothiocyanate) (A) an agonist for the receptor TRPA-1 or capsaicin (B) an agonist for the receptor TRPV-1 and calcium responses were measured in individual neurons by fluorescence microscopy. […]

β-hexosaminidase = β-hexosaminidase enzyme activity in RBL-2H3 cell lysates with p-NAG; format: biochemical, rat; settings: 1 hr at 37° C.
Description: FIG. 8. […] RBL-2H3 cells were lysed with 0.1% Triton X-100 to release β-hex from the cells. Lysates were incubated for 1 hr at 37° C. with the substrate, p-NAG, in combination with the indicated concentrations of A15 or vehicle only. The absorbance at 405 nm was measured using a microplate spectrophotometer. Results shown are the means±SEM of triplicate wells from a representative experiment out of 2 independent experiments. Statistical analysis was performed using a one-way ANOVA with Dunnett's post-hoc test.

[1] = test system: bone marrow derived mast cells (BMMCs); test: β-hexosaminidase degranulation assay, BMMCs; format: cell-based; settings: Mus musculus, BMMC, A23187-stimulated BMMCs, 1 hr, read-out: maximum inhibition of release of β-hex
Description: FIGS. 1A-1F. A15 inhibits BMMC and RBL-2H3 cell degranulation. The structure of alkamide A15 is shown with different functional groups and carbons in the fatty acid chain labeled (FIG. 1A). BMMCs were plated and stimulated 4 hrs later with 1 μM A23187 and the indicated concentrations of A15 or vehicle only. The percent degranulation was measured after 1 hr (FIG. 1B). RBL-2H3 cells were treated with A23187 and the percent degranulation was determined 1 hr later (FIG. 1C) or every 10 min over a 1 hr time course (FIG. 1D). RBL-2H3 cells were plated and incubated for 4 hrs before the media was aspirated and replaced with media containing 1 μg/mL IgE anti-DNP. Cells were incubated overnight and washed prior to stimulation. The percent degranulation from RBL-2H3 cells was calculated after stimulation with 50 ng/mL DNP-HSA in combination with the indicated concentrations of A15 or vehicle only after 1 hr (FIG. 1E). RBL-2H3 cells were stimulated for 1 hr in Tyrode's buffer before supernatants were collected and levels of histamine were measured using a competitive inhibition EIA kit (FIG. 1F). […]
RBL-2H3 cell and BMMC degranulation was measured using a β-hexosaminidase (β-hex) activity assay. […]

SMILES: CCCCCCC/C=C/C=C/C(=O)NCC(C)C [A15, (2E,4E)-N-Isobutyldodeca-2,4-dienamide]
- DRG neuron calcium response to capsaicin (TRPV1 agonist) (TRPV1): inhibited
- enzymatic activity of β-hex (production of chromogenic product from p-NAG) (β-hexosaminidase): not inhibited
- inhibition at 100 µM [1]: 83.5%
